Here are results for 34 compounds from patent US20090082203A1, “INSECTICIDAL BIS(SUBSTITUTED PHENYL)-1-{[4-(SATURATED HETEROCYCLYL-SUBSTITUTED)PHENYLMETHYL]- (4-PIPERIDYL)}METHANE DERIVATIVES” (priority 2004, published 2009).

The series has as its system tobacco budworm (Heliothis virescens [Fabricius]). The experiment in a line: surface-treated diet test against tobacco budworm. Format: in vivo. To be noted: for Percent Growth Inhibition: inhibition of insect weight relative to untreated controls. The method, then: Candidate insecticides were evaluated for activity against the tobacco budworm (Heliothis virescens [Fabricius]) in a surface-treated diet test.
In this test one mL of molten (65-70° C.) wheat germ-based artificial diet was pipetted into each well of a four by six (24 well) multi-well plate (ID# 430345-15.5 mm dia.×17.6 mm deep; Corning Costar Corp., One Alewife Center, Cambridge, Mass. 02140). The diet was allowed to cool to ambient temperature before treatment with candidate insecticide.
For a determination of insecticidal activity, solutions of the candidate insecticides were prepared for testing using a Packard 204DT Multiprobe® Robotic System (Packard Instrument Company, 800 Research Parkway, Meriden, Conn. 06450), in which the robot first diluted a standard 50 millimolar DMSO solution of candidate insecticide with a 1:1 water/acetone solution (V/V) in a ratio of 1:7 stock solution to water/acetone. The robot subsequently pipetted 40 microliters of the so-prepared solution onto the surface of the diet in each of three wells in the 24 multi-well plate. The process was repeated with solutions of seven other candidate insecticides. Once treated, the contents of the multi-well plate were allowed to dry, leaving 0.25 millimoles of candidate insecticide on the surface of the diet, or a concentration of 0.25 millimolar. Appropriate untreated controls containing only DMSO on the diet surface were also included in this test.
For evaluations of the insecticidal activity of a candidate insecticide at varying rates of application, the test was established as described above using sub-multiples of the standard 50 millimolar DMSO solution of candidate insecticide. For example, the standard 50 millimolar solution was diluted by the robot with DMSO to give 5, 0.5, 0.05, 0.005, 0.0005 millimolar, or more dilute solutions of the candidate insecticide. In these evaluations there were six replicates of each rate of application placed on the surface of the diet in the 24 multi-well plate, for a total of four rates of application of candidate insecticide in each plate.
In each well of the test plate was placed one second instar tobacco budworm larvae, each weighing approximately five milligrams. After the larvae were placed in each well, the plate was sealed with clear polyfilm adhesive tape. The tape over each well was perforated to ensure an adequate air supply. The plates were then held in a growth chamber at 25° C. and 60% relative humidity for five days (light 14 hours/day).
After the five-day exposure period insecticidal activity for each rate of application of candidate insecticide was assessed as percent inhibition of insect weight relative to the weight of insects from untreated controls, and percent mortality when compared to the total number of insects infested.
The test compounds of formula I are identified by numbers that correspond to those in Table 1.

Setting [1] is: 0.25 millimolar on the surface of the diet, second instar larvae, five-day exposure, compared to the total number of insects infested.
The mark [2] stands for this setting: 0.25 millimolar on the surface of the diet, second instar larvae, five-day exposure.

`[O-][N+]1(Cc2ccc(C3OCCCCO3)cc2)CCC(C(O)(c2ccc(OC(F)(F)F)cc2)c2ccc(OC(F)(F)F)cc2)CC1` (centres unmarked) [Compound 7]: the “Percent Mortality” value under setting [1] amounted to 100%. In addition, under setting [2], the “Percent Growth Inhibition” value turned out to be 100%.

Turning to `[O-][N+]1(Cc2ccc(C3COCO3)cc2)CCC(C(O)(c2ccc(OC(F)(F)F)cc2)c2ccc(OC(F)(F)F)cc2)CC1` (centres unmarked) [Compound 104], the “Percent Mortality” value under setting [1] was 100%. For the same compound, under setting [2], the “Percent Growth Inhibition” value is on record as 100%.

As to `OC(c1ccc(OC(F)(F)F)cc1)(c1ccc(OC(F)(F)F)cc1)C1CCN(Cc2ccc(C3OCCC(c4ccccc4)O3)cc2)CC1` (centres unmarked) [Compound 55], the “Percent Mortality” value under setting [1] worked out at 100%. Moreover, the “Percent Growth Inhibition” value under setting [2] is listed as 100%.

`[O-][N+]1(Cc2ccc(C3O[C@@H]4CCCC[C@H]4O3)cc2)CCC(C(O)(c2ccc(OC(F)(F)F)cc2)c2ccc(OC(F)(F)F)cc2)CC1` (relative stereo) [Compound 128]: under setting [1], the “Percent Mortality” value stood at 100%. For the same compound, the “Percent Growth Inhibition” value under setting [2] is given as 100%.

With `OC(c1ccc(OC(F)(F)F)cc1)(c1ccc(OC(F)(F)F)cc1)C1CCN(Cc2ccc(C3(Cc4ccccc4)OCCO3)cc2)CC1` [Compound 66], the “Percent Mortality” value under setting [1] turned out to be 67%. Also, the “Percent Growth Inhibition” value under setting [2] is on record as 100%.

Regarding `CCC1COC(c2ccc(C[N+]3([O-])CCC(C(O)(c4ccc(OC(F)(F)F)cc4)c4ccc(OC(F)(F)F)cc4)CC3)cc2)O1` (centres unmarked) [Compound 62], the “Percent Mortality” value under setting [1] stood at 100%. For the same compound, the “Percent Growth Inhibition” value under setting [2] is 100%.

Turning to `[O-][N+]1(Cc2ccc(C3OCCO3)cc2)CCC(C(O)(c2ccc(OC(F)(F)F)cc2)c2ccc(OC(F)(F)F)cc2)CC1` (centres unmarked) [Compound 2], the “Percent Growth Inhibition” value under setting [2] stood at 100%. Moreover, the “Percent Mortality” value (in vivo) came to 100%.

`OC(c1ccc(OC(F)(F)F)cc1)(c1ccc(OC(F)(F)F)cc1)C1CCN(Cc2ccc(C3OCCO3)cc2)CC1` [Compound 1]: the “Percent Growth Inhibition” value under setting [2] amounted to 100%. Also, the “Percent Mortality” value (in vivo) was found to be 100%.

Regarding `CC1CC(C)(C)OC(c2ccc(CN3CCC(C(O)(c4ccc(OC(F)(F)F)cc4)c4ccc(OC(F)(F)F)cc4)CC3)cc2)O1` (centres unmarked) [Compound 78], under setting [1], the “Percent Mortality” value turned out to be 100%. Besides, the “Percent Growth Inhibition” value under setting [2] is recorded as 100%.

With `OC(c1ccc(OC(F)(F)F)cc1)(c1ccc(OC(F)(F)F)cc1)C1CCN(Cc2ccc(C3OC4CCCCC4O3)cc2)CC1` (centres unmarked) [Compound 127], under setting [1], the “Percent Mortality” value came to 100%. The “Percent Growth Inhibition” value under setting [2] was 100%.

Consider `OC(c1ccc(OC(F)(F)F)cc1)(c1ccc(OC(F)(F)F)cc1)C1CCN(Cc2ccc(OCC3OCCO3)cc2)CC1` [Compound 187], for which the “Percent Mortality” value under setting [1] is given as 100%. Under setting [2], the “Percent Growth Inhibition” value is reported as 100%.

As for `[O-][N+]1(Cc2ccc(C3OCCCO3)cc2)CCC(C(O)(c2ccc(OC(F)(F)F)cc2)c2ccc(OC(F)(F)F)cc2)CC1` (centres unmarked) [Compound 5], the “Percent Mortality” value under setting [1] came to 100%. Moreover, the “Percent Growth Inhibition” value under setting [2] is 100%.

For the compound `[O-][N+]1(Cc2ccc(C3O[C@H]4CCCC[C@H]4O3)cc2)CCC(C(O)(c2ccc(OC(F)(F)F)cc2)c2ccc(OC(F)(F)F)cc2)CC1` (some centres unmarked) [Compound 117], the “Percent Mortality” value under setting [1] was found to be 100%. The “Percent Growth Inhibition” value under setting [2] amounted to 100%.

Regarding `OC(c1ccc(OC(F)(F)F)cc1)(c1ccc(OC(F)(F)F)cc1)C1CCN(Cc2ccc(C3OCC(c4ccccc4)O3)cc2)CC1` (centres unmarked) [Compound 53], the “Percent Mortality” value under setting [1] was found to be 100%. For the same compound, the “Percent Growth Inhibition” value under setting [2] is 100%.

`CC1COC(COc2ccc(CN3CCC(C(O)(c4ccc(OC(F)(F)F)cc4)c4ccc(OC(F)(F)F)cc4)CC3)cc2)O1` (centres unmarked) [Compound 193]: the “Percent Mortality” value under setting [1] was determined as 100%. Under setting [2], the “Percent Growth Inhibition” value stood at 100%.

For `CC(C)(C)C1COC(c2ccc(CN3CCC(C(O)(c4ccc(OC(F)(F)F)cc4)c4ccc(OC(F)(F)F)cc4)CC3)cc2)O1` (centres unmarked) [Compound 50], the “Percent Mortality” value under setting [1] is 100%. Besides, the “Percent Growth Inhibition” value under setting [2] stood at 100%.

With `OC(c1ccc(OC(F)(F)F)cc1)(c1ccc(OC(F)(F)F)cc1)C1CCN(Cc2ccc(C3O[C@H]4COC[C@H]4O3)cc2)CC1` (some centres unmarked) [Compound 116], under setting [1], the “Percent Mortality” value was 100%. For the same compound, the “Percent Growth Inhibition” value under setting [2] was determined as 100%.

On to `CC1(C)COC(c2ccc(CN3CCC(C(O)(c4ccc(OC(F)(F)F)cc4)c4ccc(OC(F)(F)F)cc4)CC3)cc2)OC1` [Compound 39], for which, under setting [1], the “Percent Mortality” value came to 100%. The “Percent Growth Inhibition” value under setting [2] was 100%.

In the case of `CC1(C)OC(c2ccc(C[N+]3([O-])CCC(C(O)(c4ccc(OC(F)(F)F)cc4)c4ccc(OC(F)(F)F)cc4)CC3)cc2)OC1(C)C` (centres unmarked) [Compound 126], the “Percent Mortality” value under setting [1] worked out at 100%. In addition, the “Percent Growth Inhibition” value under setting [2] was 100%.

Turning to `[O-][N+]1(Cc2ccc(C3OCCO3)c(F)c2)CCC(C(O)(c2ccc(OC(F)(F)F)cc2)c2ccc(OC(F)(F)F)cc2)CC1` (centres unmarked) [Compound 175], under setting [1], the “Percent Mortality” value is on record as 100%. Also, the “Percent Growth Inhibition” value under setting [2] was determined as 100%.

Regarding `OC(c1ccc(OC(F)(F)F)cc1)(c1ccc(OC(F)(F)F)cc1)C1CCN(Cc2ccc(C3OCCS3)cc2)CC1` (centres unmarked) [Compound 17], the “Percent Mortality” value under setting [1] worked out at 100%. Moreover, the “Percent Growth Inhibition” value under setting [2] came out at 100%.

As to `CC1OC(c2ccc(CN3CCC(C(O)(c4ccc(OC(F)(F)F)cc4)c4ccc(OC(F)(F)F)cc4)CC3)cc2)OC1C` (centres unmarked) [Compound 121], the “Percent Mortality” value under setting [1] is recorded as 100%. The “Percent Growth Inhibition” value under setting [2] is given as 100%.

Take `OC(c1ccc(OC(F)(F)F)cc1)(c1ccc(OC(F)(F)F)cc1)C1CCN(Cc2ccc(C3(c4ccc(Cl)nc4)OCCO3)cc2)CC1` [Compound 83]: the “Percent Mortality” value under setting [1] came to 0%. The “Percent Growth Inhibition” value under setting [2] is given as 31%.

With `CCC1COC(COc2ccc(CN3CCC(C(O)(c4ccc(OC(F)(F)F)cc4)c4ccc(OC(F)(F)F)cc4)CC3)cc2)O1` (centres unmarked) [Compound 196], the “Percent Mortality” value under setting [1] is listed as 100%. Moreover, the “Percent Growth Inhibition” value under setting [2] is given as 100%.

Regarding `[O-][N+]1(Cc2ccc(C3OCCO3)c(Cl)c2)CCC(C(O)(c2ccc(OC(F)(F)F)cc2)c2ccc(OC(F)(F)F)cc2)CC1` (centres unmarked) [Compound 181], under setting [1], the “Percent Mortality” value was 100%. In addition, the “Percent Growth Inhibition” value under setting [2] came out at 100%.

Consider `O=C(NCC1COC(c2ccc(CN3CCC(C(O)(c4ccc(OC(F)(F)F)cc4)c4ccc(OC(F)(F)F)cc4)CC3)cc2)O1)OCc1ccccc1` (centres unmarked) [Compound 95], for which the “Percent Mortality” value under setting [1] was 100%. In addition, the “Percent Growth Inhibition” value under setting [2] is given as 100%.

Consider `CC1COC(c2ccc(CN3CCC(C(O)(c4ccc(Cl)c(Cl)c4)c4ccc(Cl)c(Cl)c4)CC3)cc2)O1` (centres unmarked) [Compound 176], for which the “Percent Mortality” value under setting [1] stood at 100%. In addition, the “Percent Growth Inhibition” value under setting [2] is 100%.

With `COCC1COC(COc2ccc(C[N+]3([O-])CCC(C(O)(c4ccc(OC(F)(F)F)cc4)c4ccc(OC(F)(F)F)cc4)CC3)cc2)O1` (centres unmarked) [Compound 197], the “Percent Mortality” value under setting [1] is 100%. In addition, the “Percent Growth Inhibition” value under setting [2] amounted to 100%.

Consider `[O-][N+]1(Cc2ccc(C3(COc4ccccc4)OCCO3)cc2)CCC(C(O)(c2ccc(OC(F)(F)F)cc2)c2ccc(OC(F)(F)F)cc2)CC1` (centres unmarked) [Compound 67], for which the “Percent Mortality” value under setting [1] was 100%. In addition, the “Percent Growth Inhibition” value under setting [2] is reported as 100%.

On to `[O-][N+]1(Cc2ccc(C3(c4ccc(Cl)nc4)OCCO3)cc2)CCC(C(O)(c2ccc(OC(F)(F)F)cc2)c2ccc(OC(F)(F)F)cc2)CC1` (centres unmarked) [Compound 87], for which the “Percent Mortality” value under setting [1] stood at 17%. Further, under setting [2], the “Percent Growth Inhibition” value is listed as 79%.

On to `COc1ccc(C2(COc3ccc(C[N+]4([O-])CCC(C(O)(c5ccc(OC(F)(F)F)cc5)c5ccc(OC(F)(F)F)cc5)CC4)cc3)OCCO2)cc1` (centres unmarked) [Compound 191], for which the “Percent Mortality” value under setting [1] is given as 100%. Under setting [2], the “Percent Growth Inhibition” value is 100%.

Turning to `COCC1COC(COc2ccc(CN3CCC(C(O)(c4ccc(OC(F)(F)F)cc4)c4ccc(OC(F)(F)F)cc4)CC3)cc2)O1` (centres unmarked) [Compound 195], the “Percent Mortality” value under setting [1] is given as 100%. Moreover, the “Percent Growth Inhibition” value under setting [2] came to 100%.

Regarding `[O-][N+]1(Cc2ccc(C3OCC4OC4CO3)cc2)CCC(C(O)(c2ccc(OC(F)(F)F)cc2)c2ccc(OC(F)(F)F)cc2)CC1` (centres unmarked) [Compound 105], the “Percent Mortality” value under setting [1] was 100%. Under setting [2], the “Percent Growth Inhibition” value was 100%.

For `OC(c1ccc(OC(F)(F)F)cc1)(c1ccc(OC(F)(F)F)cc1)C1CCN(Cc2ccc(C3OCC(COc4ccccc4)O3)cc2)CC1` (centres unmarked) [Compound 92], the “Percent Mortality” value under setting [1] amounted to 100%. Also, the “Percent Growth Inhibition” value under setting [2] worked out at 100%.
